According to patent publication US4100285A, “N-substituted trialkoxybenzyl piperazine derivatives” (Nippon Shinyaku Co., Ltd., priority 1976, dated 1978):

Assays:
removed guinea pig heart = assay: Cardiovascular activity measured according to Langedorff's method by using the removed guinea pig heart; details: Concentration 10^-4 g/ml; for Heart Movements: Amplitude / Heart Movements: Tonus: arrow symbols
Experimental: (§1) For administration of the compounds of this invention into the human body, it is recommended to give them at the dose of 10 to 500 mg/day for internal administration and 1 to 50 mg/day for intravenous aministration. The compounds can be administered as such or in combination with a pharmaceutical carrier conventionally employed in cardiovascular and like preparations.

LD50 on mice = details: in vivo, ip; mouse
Experimental: as §1

Row | SMILES | Coronary perfusion pressure (Δ%) (removed guinea pig heart) | Heart rate (Δ%) (removed guinea pig heart) | Heart Movements: Amplitude (removed guinea pig heart) | Heart Movements: Tonus (removed guinea pig heart) | LD50 (LD50 on mice) [mg/kg]
1 | COc1ccc(CN2CCN(CCO)CC2)c(OC)c1OC [Example 10] | -4.4 Δ% | -10.7 Δ% | .dwnarw. | .dwnarw. | 567
2 | COc1ccc(CN2CCN(c3nc(N)nc(N)n3)CC2)c(OC)c1OC [Example 3] | 4.4 Δ% | -21.9 Δ% | .dwnarw. | → | 
3 | COc1ccc(CN2CCN(CC=C(C)C)CC2)c(OC)c1OC [Example 1] | 5.7 Δ% | -18.2 Δ% | .dwnarw. | → | 
4 | COc1ccc(CN2CCN(CC=Cc3ccccc3)CC2)c(OC)c1OC [Example 2] | -11.1 Δ% | -60.3 Δ% | .dwnarw. | → | 
5 | COc1ccc(CN2CCN(CCCCCCCCN3CCN(Cc4ccc(OC)c(OC)c4OC)CC3)CC2)c(OC)c1OC [Example 9] | -10.0 Δ% | -28.6 Δ% | .dwnarw. | .dwnarw. | 
6 | COc1ccc(CN2CCN(CCCCN3CCN(Cc4ccc(OC)c(OC)c4OC)CC3)CC2)c(OC)c1OC [Example 7] | -18.8 Δ% | -37.5 Δ% | .dwnarw. | → | 239
7 | COc1ccc(CN2CCN(CC(C)O)CC2)c(OC)c1OC (centres unmarked) [Example 11] | -11.1 Δ% | -49.4 Δ% | .dwnarw. | → | 336
8 | COc1ccc(CN2CCN(CC(O)CO)CC2)c(OC)c1OC (centres unmarked) [Example 12] |  | -16.1 Δ% | .dwnarw. | → | 724
9 | COc1ccc(CN2CCN(CC(O)COc3ccccc3)CC2)c(OC)c1OC (centres unmarked) [Example 14] | -20.0 Δ% | -48.7 Δ% | .dwnarw. | .dwnarw. | 142
10 | COc1ccc(CN2CCN(CCN3CCOCC3)CC2)c(OC)c1OC [Example 4] | -2.1 Δ% | -8.6 Δ% | .uparw. | → | 567
11 | COc1ccc(CN2CCN(CCN3CCN(Cc4ccc(OC)c(OC)c4OC)CC3)CC2)c(OC)c1OC [Example 6] | -3.7 Δ% | -11.7 Δ% | .dwnarw. | → | 
12 | COc1ccc(CN2CCN(CCCCCCN3CCN(Cc4ccc(OC)c(OC)c4OC)CC3)CC2)c(OC)c1OC [Example 8] | -19.2 Δ% | -19.1 Δ% | .dwnarw. | → | 84
13 | COc1ccc(CN2CCN(CC(O)c3ccccc3)CC2)c(OC)c1OC (centres unmarked) [Example 13] | -16.0 Δ% | -54.5 Δ% | .dwnarw. | → | 106
